One block for each molecule: values may come before it. Peptide text beside a SMILES is read from it.
Experiments:
[1] = ANTS/DPX dye leakage assay with large unilamellar vesicles; type: biochemical; details: 500 µM lipid
Method: Large unilamellar vesicles were prepared using a modified procedure from Wimley. Individual solutions of 1-palmitoyl-2-oleoyl-glycero-3-phosphocholine (POPC) and 1-palmitoyl-2-oleoyl-sn-glycero-3-phospho-(1’-rac-glycerol) (sodium salt) (POPG) lipids (Avanti Research, Alabaster, AL, USA) in chloroform were mixed in a 7:3 mol/mol POPC–POPG ratio, and the chloroform was gently evaporated under a stream of nitrogen gas. The lipid film was then dried in vacuo overnight. After complete evaporation of the chloroform, the lipid film was resuspended in the vesicle preparation buffer to yield a 25 mM lipid solution. The vesicle preparation buffer consisted of 45 mM KCl, 10 mM Tris HCl, 8 mM 8-aminonaphthalene-1,3,6-trisulfonic acid disodium salt (ANTS) (Fisher Scientific Inc., Waltham, MA, USA), and 32 mM p-xylene-bis-pyridinium bromide (DPX) (Fisher Scientific, Inc.). The lipid film was allowed to dissolve in the vesicle preparation buffer for approximately 15 min. If any lipid film remained on the side of the tube, the solution was gently pipetted up and down to mix the film with the liposome suspension. Once the film was thoroughly dissolved, the lipid suspension was subjected to 10 freeze/thaw cycles using a dry ice/ethanol bath and a 60 °C water bath to facilitate encapsulation of the fluorophore and quencher pair (ANTS and DPX). […]
Lyophilized peptide was dissolved in the liposome elution buffer at a volume corresponding to half the total volume needed for the experiment. The liposome solution was diluted to 1 mM lipid from the concentration calculated using the phosphorus concentration method described above. […]
Fluorescence measurements were conducted on a Tecan Spark® 20M plate reader (Tecan, Männedorf, Zurich, Switzerland). […] The wells were excited at 355 nm with a bandwidth of 5 nm, and emission was monitored at a wavelength of 520 nm with a bandwidth of 10 nm. The gain and z-position were calculated using a well containing liposomes lysed with reduced Triton^TM X-100 (Sigma-Aldrich) to produce maximum fluorescence. […]
To ensure accurate comparison across batches of liposomes, the percentage leakage was calculated using the formula: PercentLeakage=F−F0/Flysed−F0×100 where F is the relative fluorescence (RF) at time t, F0 is the RF at t=0 , and Flysed is the RF after the addition of detergent. Since leakage occurred immediately upon mixing the liposome and peptide solutions, the initial fluorescence ( F0 ) was determined by adding the relative fluorescence of liposomes alone to the relative fluorescence of the peptide in the elution buffer at each relevant concentration. […] Leakage experiments were performed at least in triplicate, and error bars were calculated as the standard deviation about the mean. […]

[2] = Solubility in liquid elution buffer observed during CD measurements; type: physicochemical; details: liposome elution buffer (75 mM KCl, 20 mM Tris HCl), lyophilized peptide dissolved, 25 °C CD samples
Method: Circular dichroism (CD) spectra were recorded using a Jasco-815 circular dichroism spectrometer with a 0.1 mm path-length quartz cuvette. Scans were performed at 25 °C in duplicate, covering the wavelength range of 190–260 nm. The scanning parameters included a 1.0 nm data pitch, 1.0 nm bandwidth, and a scanning speed of 100 nm/min.
Additionally, the spectra recorded in the presence of the LUVs differed from those recorded in buffer alone. […] At peptide concentrations higher than 500 µM, M03 began to lose solubility, while M04 began to precipitate from solution at concentrations higher than 200 µM. The reduced solubility of M04 was likely due to the orientation of all its hydrophobic residues on one face of the α -helix, making it more prone to aggregation in aqueous solutions. […] It is also important to note that the CD spectra of M03 and M04 were noticeably different from each other. This underscores the effect that varying the sequence pattern, even slightly, can have on the resulting peptide properties.

[3] = immediately upon dissolution in aqueous solvent; cited from earlier work
Text: In the following section, we discuss the secondary structure and membrane damage properties of M03 and M04. […] This happened immediately upon dissolution in aqueous solvent; likely before it was able to interact with the membranes. Therefore, it was difficult to determine the effect of M01 peptides on membranes experimentally, as the leakage observed was likely due to mechanical disruption of the liposomes as the peptide monomers assembled ...

Molecule: CC(=O)N[C@@H](Cc1ccccc1)C(=O)N[C@@H](Cc1ccccc1)C(=O)N[C@@H](CCCCN)C(=O)N[C@@H](CCCCN)C(=O)N[C@@H](Cc1ccccc1)C(=O)N[C@@H](Cc1ccccc1)C(=O)N[C@@H](CCC(=O)O)C(=O)N[C@@H](CCC(=O)O)C(N)=O [Peptide M02, Ac-FFKKFFEE-NH2] (Ac-FFKKFFEE-NH2)
leakage ([1]; peptide 100 µM, 500 µM and 1 mM (P:L 1:5, 1:1, 2:1), 7:3 POPC–POPG LUVs, ANTS/DPX): minimal leakage

peptide concentration above which the peptide begins to lose solubility / precipitate [2]: higher than 500 µM
Molecule: CC(=O)N[C@@H](Cc1ccccc1)C(=O)N[C@@H](Cc1ccccc1)C(=O)N[C@@H](CCCCN)C(=O)N[C@@H](CCCCN)C(=O)N[C@@H](Cc1ccccc1)C(=O)N[C@@H](Cc1ccccc1)C(=O)N[C@@H](CCC(=O)O)C(=O)N[C@@H](CCC(=O)O)C(=O)N[C@@H](Cc1ccccc1)C(=O)N[C@@H](Cc1ccccc1)C(=O)N[C@@H](CCCCN)C(=O)N[C@@H](CCCCN)C(=O)N[C@@H](Cc1ccccc1)C(=O)N[C@@H](Cc1ccccc1)C(=O)N[C@@H](CCC(=O)O)C(=O)N[C@@H](CCC(=O)O)C(N)=O [Peptide M03, Ac-(FFKKFFEE)2-NH2] (Ac-FFKKFFEEFFKKFFEE-NH2)
percentage of leakage ([1]; all P:L ratios tested (1:50, 2:50, 1:10, 1:5, 2:5), ANTS/DPX in 7:3 POPC–POPG LUVs, 75 mM KCl/20 mM Tris HCl, room temperature, fluorescence ex 355/em 520 nm, at least triplicate): greater than 80%

peptide concentration above which the peptide begins to lose solubility / precipitate [2]: higher than 200 µM
Molecule: CC(=O)N[C@@H](Cc1ccccc1)C(=O)N[C@@H](Cc1ccccc1)C(=O)N[C@@H](CCCCN)C(=O)N[C@@H](CCCCN)C(=O)N[C@@H](Cc1ccccc1)C(=O)N[C@@H](Cc1ccccc1)C(=O)N[C@@H](CCC(=O)O)C(=O)N[C@@H](CCC(=O)O)C(=O)N[C@@H](Cc1ccccc1)C(=O)N[C@@H](CCCCN)C(=O)N[C@@H](CCCCN)C(=O)N[C@@H](Cc1ccccc1)C(=O)N[C@@H](Cc1ccccc1)C(=O)N[C@@H](CCC(=O)O)C(=O)N[C@@H](CCC(=O)O)C(=O)N[C@@H](Cc1ccccc1)C(N)=O [Peptide M04, Ac-FFKKFFEEFKKFFEEF-NH2] (Ac-FFKKFFEEFKKFFEEF-NH2)
percentage of leakage ([1]; P:L 1:50 (lowest ratio), ANTS/DPX in 7:3 POPC–POPG LUVs, 75 mM KCl/20 mM Tris HCl, fluorescence, at least triplicate): no leakage
percentage of leakage (damage) ([1]; P:L 2:50, ANTS/DPX in 7:3 POPC–POPG LUVs, 75 mM KCl/20 mM Tris HCl, fluorescence, at least triplicate): 21%

Molecule: Ac-FKFEFKFE-NH2 [Peptide M01, 8-residue amphipathic β-sheet forming peptide]
self-assembly / aggregation [3]: self-assembled into supramolecular β -sheet rich fibers

Reference: paper PMC12292791, “Insights into Membrane Damage by α-Helical and β-Sheet Peptides” (Biomolecules, 2025)
